# Results as given in US7919577B2, “Adrenocorticotropic hormone analogs and related methods” (Colorado Seminary, priority 2004, dated 2011).
# No end group written: not given here.
# Test system: dexamethasone-suppressed male FVB/N mice
# Assay: in vivo Serum Corticosteroid Induction Assay (Example 1)
# Set-up: species or system mouse
# Conditions: relative to unmodified mACTH(1-24); 1 μg subcutaneously to dexamethasone-suppressed mice; blood one hour later
# Method: An in vivo Serum Corticosteroid Induction Assay measures the level of corticosteroid or corticosterone in the blood stream of a subject. More specifically, the in vivo Serum Corticosteroid Induction Assay can include the following steps: first, an agent to suppress endogenous ACTH production was administered to a mouse subject, such as an intraperitoneal injection of dexamethasone; second, after waiting a suitable period of time for suppression of endogenous ACTH production (e.g., 1.5-2.0 hours), a test compound can be administered to the mouse by a suitable method, such as intraperitoneal or subcutaneous injection; and third, after waiting a suitable period of time (e.g., 1 hour) for action of the injected test compound, a blood sample can be taken from the subject and the level of serum corticosterone can be determined by a suitable method, such as a competitive radioimmunoassay using ^125I RIA kit (ICN, Costa Mesa, Calif.). Example 1 describes a murine in vivo Serum Corticosteroid Induction Assay in detail.
# The corticosteroid or corticosterone secretion induced in vivo by an ACTH analog compound was compared to the level of corticosteroid secretion produced by an unmodified ACTH compound by measuring blood serum corticosteroid after administering either the ACTH or ACTH analog as test compounds. […] ACTH analog compositions with decreased function were identified by measuring corticosterone levels using standard radioimmunoassay (RIA) analysis on blood samples collected one hour after administering the mACTH(1-24) or ACTH analog compound to dexamethasone-suppressed mice. In FIG. 1, the potency of various ACTH analog peptides is expressed as percent induction of corticosterone, with mouse ACTH being 100%. […] The percent of corticosterone induction 12 of ACTH analog Compounds in Samples 2-10 are shown as a percentage of the concentration of serum corticosterone 20 measured for unmodified mACTH(1-24) in the in vivo Serum Corticosteroid Adrenal Induction Assay. The structural modifications and measured percentage reduction in serum measured for Samples 2-10 in FIG. 1 are shown in Table 3 below.
# The in vivo Serum Corticosteroid Induction Assay was performed according the following method. First, two to three month-old male FVB/N mice from our colony, five per group, were injected intraperitoneally with dexamethasone (0.4 mg/0.1 ml PBS per mouse; Sigma, St. Louis, Mo.) to suppress their endogenous ACTH production. See Hajos, G T et al., “Studies of the potency of polypeptides with ACTH action by a new method based on continuous measurement of plasma corticosterone,” Steroids Lipids Res 3:225-228 (1972), Costa, J L, et al., “Mutational analysis of evolutionarily conserved ACTH residues,” Gen Comp Endocrinol, 136:12-16 (2004), and Karpac, J, et al., “Development, Maintenance, and Function of the Adrenal Gland in Early Postnatal Pro-opiomelanocortin Null Mutant Mice,” Endocrinology (2005), published online ahead of print Feb. 24, 2005, all of which are incorporated herein by reference.
# Second, ninety to one hundred twenty minutes later, the dexamethasone-suppressed mice were injected subcutaneously between the shoulder blades with either unmodified mACTH(1-24) or one of several ACTH analog peptide compounds (1 μg/0.1 mL PBS/0.5% BSA), or with vehicle alone (control) (0.1 mL PBS/0.5% BSA). The following ACTH analog peptide compounds were administered to separate mice: 1: murine ACTH1-24; 2: V26F,E30K; 3: P19W,K21E,Y23R; 4: E30K,P36R; 5: ALA19-24; 6: V26F,P36R; 7: P19W, K21E; 8: P19W,K21A,delY23; 9: P19W,K21A; 10: KRRP16-19RAAW (AT814) (SEQ ID NO:20).
# Third, one hour later, blood was collected within less than 1 minute from a small incision in the tail, and serum was flash-frozen and stored at −80° C. until assayed. Serum corticosterone was determined by competitive radioimmunoassay (^125I RIA kit; ICN, Costa Mesa, Calif.) according to the manufacturer's recommendations. One microliter of serum was used per assay sample. […]
substance,measurement,value
N-Ser^1-Tyr-Ser-Met-Glu^5-His-Phe-Arg-Trp-Gly^10-Lys-Pro-Val-Gly-Lys^15-Arg-Ala-Ala-Trp-Val^20-Lys-Val-Tyr-Pro-Ac (SYSMEHFRWGKPVGKRAAWVKVYP; not fully specified; printed as N-Ser1-Tyr-Ser-Met-Glu5-His-Phe-Arg-Trp-Gly10-Lys-Pro-Val-Gly-Lys15-Arg-Ala-Ala-Trp-Val20-Lys-Val-Tyr-Pro-Ac) [AT814],Percent reduction in serum corticosteroid,100%
